Measurements published in US12077503B2, “Substituted cyclic amides and their use as herbicides” (FMC CORPORATION, priority 2015, dated 2024).
Where two headings read alike, the source gives them in different places.

Key:
Type in all cases: in vivo
[1] = test system: barnyardgrass (Echinochloa crus-galli); assay: Test B flooded paddy test; conditions: Echinochloa crus-galli, Flood, 250 g ai/ha, read-out: Barnyardgrass plant response rating
Outline: (§1)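 Compound goes directly into floodwater once pots are flooded 3 cm above soil, targeting plants at two leaves; the water depth is then held for the test duration. Plants sit 13–15 d in a greenhouse and are rated visually, 100 denoting complete control.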

[2] = test system: sedge, umbrella (small-flower umbrella sedge, Cyperus difformis); assay: Test B flooded paddy test; conditions: Cyperus difformis, Flood, 250 g ai/ha, read-out: Sedge, Umbrella plant response rating
Outline: as §1

[3] = test system: ducksalad (Heteranthera limosa); assay: Test B flooded paddy test; conditions: Heteranthera limosa, Flood, 250 g ai/ha, read-out: Ducksalad plant response rating
Outline: as §1

[4] = test system: rice (Oryra sativa); assay: Test B flooded paddy test; conditions: Oryza sativa, Flood, 250 g ai/ha, read-out: Rice plant response rating
Outline: as §1

[5] = test system: barnyardgrass (Echinochloa crus-galli); assay: Test A postemergence; conditions: Echinochloa crus-galli, post-emergence, 240 h, read-out: Plant response rating, Barnyardgrass; for pest or weed control at 125 g/ha: 125 g ai/ha, Postemergence, visual injury after approximately 10 d, 0 to 100 scale where 0 is no effect and 100 is complete control
Outline: (§2)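 Preemergence soil spray on seeded pots or post-emergence spray on 1–2 leaf plants, in loam–sand blend. Greenhouse ~10 d. Visual rating 0–100 against untreated plants.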

[6] = test system: ryegrass, Italian (Italian ryegrass, Lolium multiflorum); assay: Test A postemergence; conditions: Lolium multiflorum, post-emergence, 240 h; for pest or weed control at 125 g/ha: 125 g ai/ha
Outline: as §2

[7] = test system: pigweed (Amaranthus retroflexus); assay: Test A postemergence; conditions: Amaranthus retroflexus, post-emergence, 240 h; for pest or weed control at 125 g/ha: 125 g ai/ha
Outline: as §2

[8] = test system: wheat (Triticum aestivum); assay: Test A postemergence; conditions: Triticum aestivum, post-emergence, 240 h; for plant injury at 125 g/ha: 125 g ai/ha
Outline: as §2

[9] = test system: giant foxtail (Setaria faberii); assay: Test A postemergence; conditions: Setaria faberi, post-emergence, 240 h; for pest or weed control at 125 g/ha: 125 g ai/ha
Outline: as §2

[10] = test system: blackgrass (Alopecurus myosuroides); assay: Test A postemergence; conditions: Alopecurus myosuroides, post-emergence, 240 h, read-out: Plant response rating, Blackgrass; for pest or weed control at 125 g/ha: 125 g ai/ha, Postemergence, visual injury after approximately 10 d, 0 to 100 scale where 0 is no effect and 100 is complete control
Outline: as §2

[11] = test system: Kochia (Kochia scoparia); assay: Test A postemergence; conditions: Bassia scoparia, post-emergence, 240 h; for pest or weed control at 125 g/ha: 125 g ai/ha
Outline: as §2

[12] = test system: Galium (catchweed bedstraw, Galium aparine); assay: Test A postemergence; conditions: Galium, post-emergence, 240 h; for pest or weed control at 125 g/ha: 125 g ai/ha
Outline: as §2

[13] = test system: corn (Zea mays); assay: Test A postemergence; conditions: Zea mays, post-emergence, 240 h; for Corn plant response rating (crop injury, 0 = no effect, 100 = complete kill) at 125 g/ha: 125 g ai/ha, Postemergence, visual injury after approximately 10 d, 0 to 100 scale where 0 is no effect and 100 is complete control
Outline: as §2

[14] = test system: ragweed (common ragweed, Ambrosia elatior); assay: Test A postemergence; conditions: Ambrosia artemisiifolia, post-emergence, 240 h; for pest or weed control at 125 g/ha: 125 g ai/ha
Outline: as §2

[15] = test system: pigweed (Amaranthus retroflexus); assay: Test A preemergence; conditions: Amaranthus retroflexus, pre-emergence, 240 h; for pest or weed control at 125 g/ha: 125 g ai/ha, Preemergence, visual injury rating after approximately 10 d, read-out: Pigweed plant response rating (0 to 100 scale, 0 is no effect, 100 is complete control); for pest or weed control at 500 g/ha: 500 g ai/ha, preemergence, visual injury rating about 10 d after treatment, 0 to 100 scale (0 no effect, 100 complete control), read-out: Pigweed plant response rating
[16] = scale of 0 to 100 where 0 is no effect and 100 is complete control
[17] = 0 to 100 scale where 0 is no effect and 100 is complete control
[18] = 500 g ai/ha, postemergence, visual injury, 0 to 100 scale (0 no effect, 100 complete control), approx. 10 d

CC(C)Oc1ccc([C@H]2CN(C)C(=O)[C@@H]2C(=O)Nc2ccc(F)cc2F)cc1 [Compound 954]
pest or weed control at 250 g/ha [1, 16]: 0% | pest or weed control at 250 g/ha [2, 16]: 0% | pest or weed control at 250 g/ha [3, 16]: 35% | pest or weed control at 250 g/ha [4, 16]: 0% | pest or weed control at 125 g/ha [5]: 60% | pest or weed control at 125 g/ha ([6]; Postemergence, visual injury after approximately 10 d, 0 to 100 scale where 0 is no effect and 100 is complete control, read-out: Plant response rating, Ryegrass, Italian): 0% | pest or weed control at 125 g/ha ([7]; Postemergence, visual injury after approximately 10 d, 0 to 100 scale where 0 is no effect and 100 is complete control, read-out: Plant response rating, Pigweed): 0% | plant injury at 125 g/ha ([8]; Postemergence, visual injury after approximately 10 d, 0 to 100 scale where 0 is no effect and 100 is complete control, read-out: Plant response rating, Wheat): 0% | pest or weed control at 125 g/ha ([9]; Postemergence, visual injury after approximately 10 d, 0 to 100 scale where 0 is no effect and 100 is complete control, read-out: Plant response rating, Foxtail, Giant): 60% | pest or weed control at 125 g/ha [10]: 0% | pest or weed control at 125 g/ha ([11]; Postemergence, visual injury after approximately 10 d, 0 to 100 scale where 0 is no effect and 100 is complete control, read-out: Plant response rating, Kochia): 0% | pest or weed control at 125 g/ha ([12]; Postemergence, visual injury after approximately 10 d, 0 to 100 scale where 0 is no effect and 100 is complete control, read-out: Plant response rating, Galium): 0% | Corn plant response rating (crop injury, 0 = no effect, 100 = complete kill) at 125 g/ha [13]: 0% | pest or weed control at 125 g/ha ([14]; Postemergence, visual injury after approximately 10 d, 0 to 100 scale where 0 is no effect and 100 is complete control, read-out: Plant response rating, Ragweed): 0% | pest or weed control at 125 g/ha [15]: 0% | pest or weed control at 500 g/ha [15]: 0%

Cc1ccc([C@H]2CNC(=O)[C@@H]2C(=O)Nc2cccc(F)c2F)cc1C [Compound 1034]
pest or weed control at 250 g/ha [1, 17]: 60% | pest or weed control at 250 g/ha [2, 17]: 0% | pest or weed control at 250 g/ha [3, 17]: 100% | pest or weed control at 250 g/ha [4, 17]: 0% | pest or weed control at 125 g/ha [5]: 90% | pest or weed control at 500 g/ha [5, 18]: 90% | pest or weed control at 125 g/ha ([6]; postemergence, visual injury on 0 to 100 scale (0 no effect, 100 complete control), approx. 10 d, read-out: Ryegrass, Italian plant response rating): 0% | pest or weed control at 500 g/ha ([6]; 500 g ai/ha, postemergence, visual injury, 0 to 100 scale (0 no effect, 100 complete control), approx. 10 d, read-out: Plant response rating, Ryegrass, Italian): 60% | pest or weed control at 125 g/ha ([7]; postemergence, visual injury on 0 to 100 scale (0 no effect, 100 complete control), approx. 10 d, read-out: Pigweed plant response rating): 0% | pest or weed control at 500 g/ha ([7]; 500 g ai/ha, postemergence, visual injury, 0 to 100 scale (0 no effect, 100 complete control), approx. 10 d, read-out: Plant response rating, Pigweed): 0% | plant injury at 125 g/ha ([8]; postemergence, visual injury on 0 to 100 scale (0 no effect, 100 complete control), approx. 10 d, read-out: Wheat plant response rating): 0% | plant injury at 500 g/ha ([8]; 500 g ai/ha, postemergence, visual injury, 0 to 100 scale (0 no effect, 100 complete control), approx. 10 d, read-out: Plant response rating, Wheat): 50% | pest or weed control at 125 g/ha ([9]; postemergence, visual injury on 0 to 100 scale (0 no effect, 100 complete control), approx. 10 d, read-out: Foxtail, Giant plant response rating): 20% | pest or weed control at 500 g/ha ([9]; 500 g ai/ha, postemergence, visual injury, 0 to 100 scale (0 no effect, 100 complete control), approx. 10 d, read-out: Plant response rating, Foxtail, Giant): 80% | pest or weed control at 125 g/ha [10]: 20% | pest or weed control at 500 g/ha [10, 18]: 30% | pest or weed control at 125 g/ha ([11]; postemergence, visual injury on 0 to 100 scale (0 no effect, 100 complete control), approx. 10 d, read-out: Kochia plant response rating): 20% | pest or weed control at 500 g/ha ([11]; 500 g ai/ha, postemergence, visual injury, 0 to 100 scale (0 no effect, 100 complete control), approx. 10 d, read-out: Plant response rating, Kochia): 30% | pest or weed control at 125 g/ha ([12]; postemergence, visual injury on 0 to 100 scale (0 no effect, 100 complete control), approx. 10 d, read-out: Galium plant response rating): 40% | pest or weed control at 500 g/ha ([12]; 500 g ai/ha, postemergence, visual injury, 0 to 100 scale (0 no effect, 100 complete control), approx. 10 d, read-out: Plant response rating, Galium): 60% | Corn plant response rating (crop injury, 0 = no effect, 100 = complete kill) at 125 g/ha [13]: 10% | Corn plant response rating (crop injury, 0 = no effect, 100 = complete kill) at 500 g/ha [13, 18]: 50% | pest or weed control at 125 g/ha ([14]; postemergence, visual injury on 0 to 100 scale (0 no effect, 100 complete control), approx. 10 d, read-out: Ragweed plant response rating): 10% | pest or weed control at 500 g/ha ([14]; 500 g ai/ha, postemergence, visual injury, 0 to 100 scale (0 no effect, 100 complete control), approx. 10 d, read-out: Plant response rating, Ragweed): 40% | pest or weed control at 125 g/ha [15]: 0% | pest or weed control at 500 g/ha [15]: 0%
